Converted amounts (≈) assume the structure as drawn.
Assays:
DPPH radical scavenging = conditions: mean ± SE, n = 3
Experimental: The 1,1-Diphenyl-2-picryl-hydrazyl (DPPH) radical scavenging activities were evaluated using the method described by Rahman et al. An antioxidant substance capable of donating a hydrogen atom to a solution containing DPPH- can reduce the stable free radical, causing the solution to change color from violet to pale yellow.
The remaining DPPH- radical was quantified by measuring the intensity of a light-purple colored DPPH methanol solution in the visible range at 518 nm using a spectroscopic method. Two mill iliters of a DPPH solution (100 µ M) in ethanol were mixed with 2 mL of the sample (at each concentration). The reaction mixture for each concentration was thoroughly vortexed and then incubated in the dark at room temperature for 30 minutes. The absorbance was then measured spectrophotometrically at 518 nm against a blank (ethanol). For the control, 2 mL of ethanol was added instead of the sample and run simultaneously with the test.
Ascorbic acid was used at the same concentrations as a positive control. P ercent […]
inhibition of the DPPH free radical was calculated. […]

NO radical scavenging = conditions: mean ± SE, n = 3
Experimental: The in vitro biological applications of the SB and SB-CuO-NPs, including antioxidant, scavenging, anti-diabetic, anti-Alzheimer, anti-arthritic, anti-inflammatory, cytotoxic effects, and enzyme inhibition, were assessed using methods described in the literature (See Supplementary Materials).
During the current study, the free radical scavenging capacity of SB-CuO-NPs, SB, and ascorbic acid (positive control) was evaluated using the DPPH, ABTS, and NO radical methods. The scavenging activity is used to predict antioxidant efficacy, a mechanism in which antioxidants inhibit lipid oxidation. The lower IC50 value indicates a stronger ability of the SB-CuO-NPs to act as radical scavengers, whereas the higher IC50 value indicates a lower scavenging activity. […] The lower the IC50 value, the greater the antioxidant activity.

[1] = target: acetylcholinesterase (AChE) (Homo sapiens, UniProt P22303); experiment: biochemical; conditions: mean ± SE, n = 3
Experimental: The absorbance was measured at 540 nm using a UV-Visible spectrophotometer. The IC50 of each tested sample was calculated by plotting a curve using a series of sample concentrations against the percent of α-amylase inhibition.
The inhibition percentage (%) of the α-glucosidase enzyme was determined using the […]
standard drug. Five μL of the α-glucosidase solution (10 units mL−1, 0.1moll−1 potassium phosphate buffer, pH 6.8) was pre -mixed with 10 μL of the sample solution at different concentrations (in 10% DMSO) i n 620 μL of 0.1 moll−1 potassium […]
phosphate buffer (pH 6.8). […]
phenyl glucopyranoside (pNPG, 10 mmoll−1) as a substrate was added to the mixture […]
minutes, followed by the addition of 650 μL of 1 moll−1 Na2CO3 solution to terminate the reaction. The amount of released product (p-nitro phenol) was measured at 410 […]
activity. The inhibition assay was performed in triplicate for all tests. The IC50 of each tested sample was calculated by plotting a curve using a series of sample concentrations against the percent of α-glucosidase inhibition.
3.4. Anti-Alzheimer's activity
In this study, we assessed the inhibition percentage of the acetylcholinesterase (AChE) enzyme using Ellman's method with donepezil as the standard drug. […] After incubation, 5 µL of AChE at a concentration of 0.3 U/mL was added to start the reaction, and the absorbance […]

[2] = system: caspase-3 in HepG-2 cells; experiment: Caspase-3 ELISA in treated HepG-2 cells; type: cell-based, human; conditions: HepG-2 cells treated at the IC50 value, mean ± SE, n = 3
Experimental: (§1) Following the treatment of HepG-2, Caco-2, A549, and BJ-1 cells with the SB-CuO-NPs at their respective IC50 values, as illustrated in Figure 9 and detailed in Table 5, an assessment of the activities of the caspase-3 and Bcl-2 enzymes was conducted in the treated cells. […] This mechanism ultimately triggers apoptosis. Additionally, the increased activity of caspase-3 results in a decrease in the expression of cyclin D1 and CDK-2 mRNA, thereby promoting the arrest of the G1 phase of the cell cycle. Othman et al. further noted that the biosynthesized M-NPs facilitate apoptosis by inhibiting the expression of the PI3K/AKT and Ras/Raf/ERK protein signaling pathways.
(§2) Invitrogen Corporation, following the manufacturer's instructions.

caspase-3 in A549 cells = experiment: Caspase-3 ELISA in treated A549 cells; type: cell-based, human; conditions: A549 cells treated at the IC50 value, mean ± SE, n = 3
Experimental: as §1, §2

Bcl-2 in A549 cells = experiment: Bcl-2 ELISA in treated A549 cells; type: cell-based, human; conditions: A549 cells treated at the IC50 value, mean ± SE, n = 3
Experimental: as §1, §2

caspase-3 in BJ-1 cells = experiment: Caspase-3 ELISA in treated BJ-1 cells; type: cell-based, human; conditions: BJ-1 cells treated at the IC50 value, mean ± SE, n = 3
Experimental: as §1, §2

[3] = system: human lung cancer (A549) cell line; experiment: MTT cytotoxicity, A549
MTT cytotoxicity, BJ-1 = conditions: human, BJ-1 normal fibroblast cells
[4] = system: normal human fibroblast (BJ-1) cell line; experiment: MTT cytotoxicity, BJ-1; conditions: Homo sapiens, Fibroblast, 48 h, read-out: Median Inhibitory Concentration (IC50) BJ-1
[5] = system: human hepatocellular carcinoma (HepG-2) cell line; experiment: MTT cytotoxicity, HepG-2
[6] = system: human colon cancer (Caco-2) cell line; experiment: MTT cytotoxicity, Caco-2

Chain of acetylcholinesterase (AChE) (P22303 32-614, species assumed): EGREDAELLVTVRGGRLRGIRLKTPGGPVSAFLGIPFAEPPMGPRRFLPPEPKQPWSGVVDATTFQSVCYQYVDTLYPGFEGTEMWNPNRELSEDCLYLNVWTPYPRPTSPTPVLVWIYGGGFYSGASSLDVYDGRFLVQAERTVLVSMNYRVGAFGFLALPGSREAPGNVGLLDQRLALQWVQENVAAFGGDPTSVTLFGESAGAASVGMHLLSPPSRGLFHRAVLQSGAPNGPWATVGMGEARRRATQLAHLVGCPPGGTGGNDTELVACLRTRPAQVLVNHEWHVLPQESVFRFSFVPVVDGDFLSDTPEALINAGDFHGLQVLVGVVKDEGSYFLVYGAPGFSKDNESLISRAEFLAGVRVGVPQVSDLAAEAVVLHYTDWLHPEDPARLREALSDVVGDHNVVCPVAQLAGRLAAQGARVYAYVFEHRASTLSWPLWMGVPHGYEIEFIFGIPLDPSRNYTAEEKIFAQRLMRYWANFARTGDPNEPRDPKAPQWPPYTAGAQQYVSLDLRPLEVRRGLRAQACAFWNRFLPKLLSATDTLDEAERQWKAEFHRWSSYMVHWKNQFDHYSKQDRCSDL

Cc1nn(-c2ccccc2)c(Cl)c1C=NN=C1C(=O)Nc2ccccc21 [SB]
Scavenging activity DPPH Inhib. (%) (DPPH radical scavenging; at 100 µg/mL): 44.54 ± 0.18% | Scavenging activity DPPH IC50 (DPPH radical scavenging): 6.24 ± 0.01 µg/mL | Scavenging activity NO Inhib. (%) (NO radical scavenging; at 100 µg/mL): 36.79 ± 0.18% | Scavenging activity NO IC50 (NO radical scavenging): 7.69 ± 0.04 µg/mL | inhibition at 100 µg/mL ([1]; at 100 µg/mL, read-out: Acetylcholinesterase (AChE) Inhib. (%)): 32.64 ± 0.16% | IC50 [1]: 19.2 µM | Caspase-3 [2]: 165.55 ± 1.29 pg/mL | Caspase-3 (caspase-3 in A549 cells): 134.94 ± 0.18 pg/mL | Bcl-2 (Bcl-2 in A549 cells): 8.26 ± 0.03 ng/mL | Caspase-3 (caspase-3 in BJ-1 cells): 109.07 ± 0.18 pg/mL | viability at 31.13 µg/mL ([3]; A549): 86.2% | viability at 62.5 µg/mL ([3]; A549): 70.3% | viability at 125 µg/mL ([3]; A549): 44.8% | viability at 250 µg/mL ([3]; A549): 38.5% | viability at 500 µg/mL ([3]; A549): 18.8% | IC50 ([3]; A549, 48 h, read-out: Median Inhibitory Concentration (IC50) A549): 110 ± 2.49 µg/mL (≈ 303 µM) | viability at 48 h, 31.13 μg/mL (MTT cytotoxicity, BJ-1): 90.9% | viability at 48 h, 62.5 μg/mL (MTT cytotoxicity, BJ-1): 80.9% | viability at 48 h, 125 μg/mL (MTT cytotoxicity, BJ-1): 62.7% | viability at 48 h, 250 μg/mL (MTT cytotoxicity, BJ-1): 47.2% | viability at 48 h, 500 μg/mL (MTT cytotoxicity, BJ-1): 19.1% | IC50 [4]: 168 ± 2.22 µg/mL (≈ 461 µM) | viability at 31.13 µg/mL ([5]; HepG2): 87.6% | viability at 62.5 µg/mL ([5]; HepG2): 74.6% | viability at 125 µg/mL ([5]; HepG2): 53.1% | viability at 250 µg/mL ([5]; HepG2): 40.2% | viability at 500 µg/mL ([5]; HepG2): 19.3% | IC50 ([5]; HepG2, 48 h, read-out: Median Inhibitory Concentration (IC50) HepG-2): 127 ± 3.13 µg/mL (≈ 350 µM) | viability at 31.13 µg/mL ([6]; Caco-2): 86% | viability at 62.5 µg/mL ([6]; Caco-2): 72.2% | viability at 125 µg/mL ([6]; Caco-2): 48.6% | viability at 250 µg/mL ([6]; Caco-2): 38.4% | viability at 500 µg/mL ([6]; Caco-2): 18.6% | IC50 ([6]; Caco-2, 48 h, read-out: Median Inhibitory Concentration (IC50) Caco-2): 115 ± 3.25 µg/mL (≈ 317 µM)

Reference: article PMC11859031, “Assessment of the In Vitro Biological Activities of Schiff Base-Synthesized Copper Oxide Nanoparticles as an Anti-Diabetic, Anti-Alzheimer, and Anti-Cancer Agent” (Pharmaceutics, 2025)
